US9156845B2, “4-(substituted amino)-7H-pyrrolo[2,3-d] pyrimidines as LRRK2 inhibitors” (Pfizer Inc., priority 2012, dated 2015)

Experiments:
[1] = molecular target: MARK2 (Homo sapiens (Human), UniProt Q7KZI7); assay: ActivX kinase probe assay (human PBMC); format: binding; conditions: read-out: percent inhibition
[2] = molecular target: GSK3A (Homo sapiens (Human), UniProt P49840); assay: ActivX kinase probe assay (human PBMC); format: binding; conditions: read-out: percent inhibition
[3] = molecular target: MAP3K5 (Homo sapiens (Human), UniProt Q99683); assay: ActivX kinase probe assay (human PBMC); format: binding; conditions: read-out: percent inhibition
[4] = molecular target: FAK (Homo sapiens (Human), UniProt Q05397); assay: ActivX kinase probe assay (human PBMC); format: binding; conditions: read-out: percent inhibition
[5] = molecular target: JAK1 domain2 (Homo sapiens (Human), UniProt P23458); assay: ActivX kinase probe assay (human PBMC); format: binding; conditions: read-out: percent inhibition
[6] = molecular target: MAP2K1 (Homo sapiens (Human), UniProt Q02750); assay: ActivX kinase probe assay (human PBMC); format: binding; conditions: read-out: percent inhibition
[7] = molecular target: NEK9 (Homo sapiens (Human), UniProt Q8TD19); assay: ActivX kinase probe assay (human PBMC); format: binding; conditions: read-out: percent inhibition
[8] = molecular target: RSK2 domain2 (Homo sapiens (Human), UniProt P51812); assay: ActivX kinase probe assay (human PBMC); format: binding; conditions: read-out: percent inhibition
[9] = molecular target: PI4KB (Homo sapiens (Human), UniProt Q9UBF8); assay: ActivX kinase probe assay (human PBMC); format: binding; conditions: read-out: percent inhibition
[10] = molecular target: CDK5 (Homo sapiens (Human), UniProt Q00535); assay: ActivX kinase probe assay (human PBMC); format: binding; conditions: read-out: percent inhibition
[11] = molecular target: Erk5 (Homo sapiens (Human), UniProt Q13164); assay: ActivX kinase probe assay (human PBMC); format: binding; conditions: read-out: percent inhibition
[12] = molecular target: LOK (Homo sapiens (Human), UniProt O94804); assay: ActivX kinase probe assay (human PBMC); format: binding; conditions: read-out: percent inhibition
[13] = molecular target: NDR1 (Homo sapiens (Human), UniProt Q15208); assay: ActivX kinase probe assay (human PBMC); format: binding; conditions: read-out: percent inhibition
[14] = molecular target: PAN3 (Homo sapiens (Human), UniProt Q58A45); assay: ActivX kinase probe assay (human PBMC); format: binding; conditions: read-out: percent inhibition
[15] = system: AKT2, AKT3; assay: ActivX kinase probe assay (human PBMC); format: binding
[16] = molecular target: ACK (Homo sapiens (Human), UniProt Q07912); assay: ActivX kinase probe assay (human PBMC); format: binding; conditions: read-out: percent inhibition
[17] = molecular target: SRC (Homo sapiens (Human), UniProt P12931); assay: ActivX kinase probe assay (human PBMC); format: binding; conditions: read-out: percent inhibition
[18] = molecular target: smMLCK (Homo sapiens (Human), UniProt Q15746); assay: ActivX kinase probe assay (human PBMC); format: binding; conditions: read-out: percent inhibition
[19] = molecular target: IRAK4 (Homo sapiens (Human), UniProt Q9NWZ3); assay: ActivX kinase probe assay (human PBMC); format: binding; conditions: read-out: percent inhibition
[20] = system: CDK11, CDK8; assay: ActivX kinase probe assay (human PBMC); format: binding
[21] = molecular target: IRE1 (Homo sapiens (Human), UniProt O75460); assay: ActivX kinase probe assay (human PBMC); format: binding; conditions: read-out: percent inhibition
[22] = molecular target: GPRK6 (Homo sapiens (Human), UniProt P43250); assay: ActivX kinase probe assay (human PBMC); format: binding; conditions: read-out: percent inhibition
[23] = molecular target: MLK3 (Homo sapiens (Human), UniProt Q16584); assay: ActivX kinase probe assay (human PBMC); format: binding; conditions: read-out: percent inhibition
[24] = molecular target: LATS1 (Homo sapiens (Human), UniProt O95835); assay: ActivX kinase probe assay (human PBMC); format: binding; conditions: read-out: percent inhibition
[25] = molecular target: FER (Homo sapiens (Human), UniProt P16591); assay: ActivX kinase probe assay (human PBMC); format: binding; conditions: read-out: percent inhibition
[26] = molecular target: CHK2 (Homo sapiens (Human), UniProt O96017); assay: ActivX kinase probe assay (human PBMC); format: binding; conditions: read-out: percent inhibition
[27] = molecular target: mutant G2019S LRRK2 (Homo sapiens (Human), UniProt Q5S007, G2019S); assay: LRRK2 Lantha Screen kinase assay, mutant enzyme; format: biochemical; conditions: geometric mean of 2-5 determinations unless otherwise indicated (a: >=6 determinations; b: single determination)

GPRK6, sequence (P43250 whole entry): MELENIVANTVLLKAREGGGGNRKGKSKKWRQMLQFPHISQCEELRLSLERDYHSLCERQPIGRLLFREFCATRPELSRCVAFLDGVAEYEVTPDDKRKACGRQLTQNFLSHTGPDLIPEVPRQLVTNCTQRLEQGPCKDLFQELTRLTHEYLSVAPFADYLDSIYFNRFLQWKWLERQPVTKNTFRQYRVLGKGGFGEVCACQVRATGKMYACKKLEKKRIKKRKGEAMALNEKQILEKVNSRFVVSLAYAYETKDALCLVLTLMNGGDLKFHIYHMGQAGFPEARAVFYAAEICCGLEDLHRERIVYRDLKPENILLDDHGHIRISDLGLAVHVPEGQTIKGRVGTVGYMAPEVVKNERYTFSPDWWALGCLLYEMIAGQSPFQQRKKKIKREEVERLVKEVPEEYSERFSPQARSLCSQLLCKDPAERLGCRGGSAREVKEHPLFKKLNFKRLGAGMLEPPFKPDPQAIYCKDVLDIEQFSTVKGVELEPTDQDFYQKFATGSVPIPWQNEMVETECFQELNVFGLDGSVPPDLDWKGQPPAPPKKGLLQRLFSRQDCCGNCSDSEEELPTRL
GSK3A, sequence (P49840 whole entry): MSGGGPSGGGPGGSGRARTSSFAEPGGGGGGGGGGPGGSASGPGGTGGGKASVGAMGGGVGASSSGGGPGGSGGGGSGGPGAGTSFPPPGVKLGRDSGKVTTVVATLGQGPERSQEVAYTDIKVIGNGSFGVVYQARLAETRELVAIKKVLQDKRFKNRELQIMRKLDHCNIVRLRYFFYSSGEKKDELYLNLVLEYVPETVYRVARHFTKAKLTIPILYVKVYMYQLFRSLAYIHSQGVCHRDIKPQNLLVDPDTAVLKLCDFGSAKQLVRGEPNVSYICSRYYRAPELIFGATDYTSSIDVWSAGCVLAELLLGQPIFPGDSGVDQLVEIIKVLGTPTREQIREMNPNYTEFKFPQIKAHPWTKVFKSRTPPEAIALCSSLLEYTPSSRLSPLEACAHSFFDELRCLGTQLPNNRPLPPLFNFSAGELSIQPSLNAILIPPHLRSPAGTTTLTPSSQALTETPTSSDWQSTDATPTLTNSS
MARK2, sequence (Q7KZI7 whole entry): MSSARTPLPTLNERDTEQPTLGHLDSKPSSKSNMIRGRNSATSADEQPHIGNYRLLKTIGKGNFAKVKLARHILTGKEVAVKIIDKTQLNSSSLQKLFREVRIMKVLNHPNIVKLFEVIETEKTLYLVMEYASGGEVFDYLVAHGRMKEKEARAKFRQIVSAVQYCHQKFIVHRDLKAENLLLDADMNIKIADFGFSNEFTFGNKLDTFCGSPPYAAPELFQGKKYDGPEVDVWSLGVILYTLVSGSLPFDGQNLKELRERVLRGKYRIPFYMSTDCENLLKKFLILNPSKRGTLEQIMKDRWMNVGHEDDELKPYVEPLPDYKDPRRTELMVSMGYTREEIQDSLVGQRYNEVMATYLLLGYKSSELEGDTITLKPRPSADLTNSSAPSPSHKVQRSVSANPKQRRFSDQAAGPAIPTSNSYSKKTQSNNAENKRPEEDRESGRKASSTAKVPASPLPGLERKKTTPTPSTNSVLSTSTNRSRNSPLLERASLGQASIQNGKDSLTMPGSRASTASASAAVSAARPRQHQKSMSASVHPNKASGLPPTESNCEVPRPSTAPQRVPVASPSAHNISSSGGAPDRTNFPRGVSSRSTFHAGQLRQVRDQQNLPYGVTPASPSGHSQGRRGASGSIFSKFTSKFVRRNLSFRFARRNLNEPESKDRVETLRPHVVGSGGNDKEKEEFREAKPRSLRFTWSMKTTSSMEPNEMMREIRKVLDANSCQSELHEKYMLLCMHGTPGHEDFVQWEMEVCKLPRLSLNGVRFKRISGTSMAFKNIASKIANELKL
SRC, sequence (P12931 whole entry, looked up): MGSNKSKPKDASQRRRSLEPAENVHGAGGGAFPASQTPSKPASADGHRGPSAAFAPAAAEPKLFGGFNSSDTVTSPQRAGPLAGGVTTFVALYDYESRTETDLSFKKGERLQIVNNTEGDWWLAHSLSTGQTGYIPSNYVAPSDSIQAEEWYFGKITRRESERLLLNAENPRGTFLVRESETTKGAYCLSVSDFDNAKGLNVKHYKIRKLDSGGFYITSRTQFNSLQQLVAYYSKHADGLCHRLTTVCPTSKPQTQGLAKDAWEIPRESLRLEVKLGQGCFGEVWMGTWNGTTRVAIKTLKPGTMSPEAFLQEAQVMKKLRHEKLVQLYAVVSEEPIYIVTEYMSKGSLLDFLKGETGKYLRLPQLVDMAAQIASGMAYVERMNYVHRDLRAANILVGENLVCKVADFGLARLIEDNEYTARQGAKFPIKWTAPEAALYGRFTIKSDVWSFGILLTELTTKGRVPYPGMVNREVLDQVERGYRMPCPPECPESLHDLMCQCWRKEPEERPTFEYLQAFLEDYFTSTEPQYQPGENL
FAK, sequence (Q05397 whole entry, the tested form may be a part): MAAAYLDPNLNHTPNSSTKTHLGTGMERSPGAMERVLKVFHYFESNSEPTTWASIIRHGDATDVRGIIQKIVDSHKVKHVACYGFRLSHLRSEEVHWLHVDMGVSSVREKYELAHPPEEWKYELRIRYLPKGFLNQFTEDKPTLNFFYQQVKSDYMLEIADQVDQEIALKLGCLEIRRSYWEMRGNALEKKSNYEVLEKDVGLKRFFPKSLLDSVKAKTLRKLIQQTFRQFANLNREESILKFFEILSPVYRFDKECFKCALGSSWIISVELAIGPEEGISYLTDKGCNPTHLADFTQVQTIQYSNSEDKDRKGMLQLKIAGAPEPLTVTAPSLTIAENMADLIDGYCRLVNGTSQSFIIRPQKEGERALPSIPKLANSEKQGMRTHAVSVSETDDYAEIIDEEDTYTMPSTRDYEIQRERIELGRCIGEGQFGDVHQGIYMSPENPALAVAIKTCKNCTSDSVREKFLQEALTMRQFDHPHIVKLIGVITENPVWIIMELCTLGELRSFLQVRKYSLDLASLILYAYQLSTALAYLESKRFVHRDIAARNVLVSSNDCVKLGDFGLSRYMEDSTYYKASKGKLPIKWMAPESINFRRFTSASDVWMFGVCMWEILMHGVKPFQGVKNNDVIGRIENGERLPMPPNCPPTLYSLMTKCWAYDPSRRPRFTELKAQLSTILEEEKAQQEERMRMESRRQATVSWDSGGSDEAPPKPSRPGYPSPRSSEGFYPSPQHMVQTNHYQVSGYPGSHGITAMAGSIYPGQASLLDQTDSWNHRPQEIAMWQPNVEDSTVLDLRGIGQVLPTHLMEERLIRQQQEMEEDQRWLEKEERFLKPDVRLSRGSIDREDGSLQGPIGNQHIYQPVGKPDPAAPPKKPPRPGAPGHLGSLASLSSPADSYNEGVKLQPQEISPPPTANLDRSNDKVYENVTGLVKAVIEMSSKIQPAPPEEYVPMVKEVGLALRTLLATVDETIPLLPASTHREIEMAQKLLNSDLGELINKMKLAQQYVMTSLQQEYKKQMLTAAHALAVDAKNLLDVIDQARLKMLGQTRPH
MAP2K1, sequence (Q02750 whole entry): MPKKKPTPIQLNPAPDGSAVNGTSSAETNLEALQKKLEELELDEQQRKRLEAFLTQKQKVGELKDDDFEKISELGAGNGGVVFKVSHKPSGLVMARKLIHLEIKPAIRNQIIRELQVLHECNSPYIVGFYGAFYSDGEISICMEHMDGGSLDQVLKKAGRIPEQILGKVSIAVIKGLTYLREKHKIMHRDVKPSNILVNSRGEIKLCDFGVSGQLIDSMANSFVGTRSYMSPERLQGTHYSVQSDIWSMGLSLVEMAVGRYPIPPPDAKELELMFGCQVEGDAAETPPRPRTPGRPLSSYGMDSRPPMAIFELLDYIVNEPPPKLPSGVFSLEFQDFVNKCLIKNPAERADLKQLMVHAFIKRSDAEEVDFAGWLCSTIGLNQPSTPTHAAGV
IRAK4, sequence (Q9NWZ3 whole entry): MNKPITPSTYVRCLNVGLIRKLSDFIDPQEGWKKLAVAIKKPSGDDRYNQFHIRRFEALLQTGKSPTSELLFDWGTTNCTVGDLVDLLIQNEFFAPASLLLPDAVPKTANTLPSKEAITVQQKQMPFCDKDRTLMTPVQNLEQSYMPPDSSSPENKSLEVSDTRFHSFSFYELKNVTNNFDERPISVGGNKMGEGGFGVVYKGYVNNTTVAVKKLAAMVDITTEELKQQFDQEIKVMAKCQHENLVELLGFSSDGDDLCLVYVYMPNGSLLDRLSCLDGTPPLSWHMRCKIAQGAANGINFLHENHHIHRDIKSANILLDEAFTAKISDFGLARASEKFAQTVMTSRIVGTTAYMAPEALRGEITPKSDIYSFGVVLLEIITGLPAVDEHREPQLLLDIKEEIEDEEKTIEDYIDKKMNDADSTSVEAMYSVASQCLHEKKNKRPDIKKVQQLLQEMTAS
CDK5, sequence (Q00535 whole entry): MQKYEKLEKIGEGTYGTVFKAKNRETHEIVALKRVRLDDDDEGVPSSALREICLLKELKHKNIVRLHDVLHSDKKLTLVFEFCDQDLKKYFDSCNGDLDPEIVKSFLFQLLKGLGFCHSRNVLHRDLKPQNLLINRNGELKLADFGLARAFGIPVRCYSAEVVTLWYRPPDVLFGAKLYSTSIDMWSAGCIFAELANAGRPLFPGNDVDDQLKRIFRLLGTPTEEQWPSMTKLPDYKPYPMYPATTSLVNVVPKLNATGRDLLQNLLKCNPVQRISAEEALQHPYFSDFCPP

N#Cc1cccc(-c2c[nH]c3ncnc(N4CCOCC4)c23)c1 [Example 4, 3-[4-(Morpholin-4-yl)-7H-pyrrolo[2,3-d]pyrimidin-5-yl]benzonitrile]
inhibition at 0.1 µM [1]: -4.7% | inhibition at 1 µM [1]: 27.3% | inhibition at 0.1 µM [2]: -0.9% | inhibition at 1 µM [2]: 7.2% | inhibition at 0.1 µM [3]: 3.3% | inhibition at 1 µM [3]: 21.3% | inhibition at 0.1 µM [4]: -8.9% | inhibition at 1 µM [4]: 11.1% | inhibition at 0.1 µM [5]: -6.2% | inhibition at 1 µM [5]: 18.9% | inhibition at 0.1 µM [6]: -17.2% | inhibition at 1 µM [6]: 14% | inhibition at 0.1 µM [7]: -7.1% | inhibition at 1 µM [7]: 1% | inhibition at 0.1 µM [8]: -10% | inhibition at 1 µM [8]: 21.4% | inhibition at 0.1 µM [9]: -7.4% | inhibition at 1 µM [9]: 4.9% | inhibition at 0.1 µM [10]: -12.2% | inhibition at 1 µM [10]: 0.1% | inhibition at 0.1 µM [11]: -5% | inhibition at 1 µM [11]: -6.3% | inhibition at 0.1 µM [12]: 11.9% | inhibition at 1 µM [12]: 53.6% | inhibition at 0.1 µM [13]: -4.4% | inhibition at 1 µM [13]: 1.7% | inhibition at 0.1 µM [14]: -0.2% | inhibition at 1 µM [14]: 15.1% | percent inhibition ([15]; 0.1 μM): −2.6% | percent inhibition ([15]; 1 μM): 6.8% | inhibition at 0.1 µM [16]: 0.8% | inhibition at 1 µM [16]: 7.7% | inhibition at 0.1 µM [17]: -18.3% | inhibition at 1 µM [17]: -2.2% | inhibition at 0.1 µM [18]: -21.6% | inhibition at 1 µM [18]: 16.2% | inhibition at 0.1 µM [19]: -12.8% | inhibition at 1 µM [19]: 10.7% | percent inhibition ([20]; 0.1 μM): 5% | percent inhibition ([20]; 1 μM): 36% | inhibition at 0.1 µM [21]: -16% | inhibition at 1 µM [21]: 1.8% | inhibition at 0.1 µM [22]: -3.9% | inhibition at 1 µM [22]: 10.9% | inhibition at 0.1 µM [23]: -14.1% | inhibition at 1 µM [23]: 19.9% | inhibition at 0.1 µM [24]: -4.8% | inhibition at 1 µM [24]: 5.4% | inhibition at 0.1 µM [25]: -26.4% | inhibition at 1 µM [25]: 1.6% | inhibition at 0.1 µM [26]: -6.8% | inhibition at 1 µM [26]: 2.2% | IC50 [27]: 0.011 µM
